# According to patent US20070254055A1, “Therapeutic Avenanthramide Compounds” (TRUSTEES OF TUFTS COLLEGE, priority 2003, published 2007):
# Test system: COX-2
# Assay: TNF-α induced COX-2 expression in HT29 cells, Western blot
# Type: cell-based, human
# Details: 25 μM
# Description: Western Blot Assay: HT-29 cells were seeded into 60 mm culture dishes and cultured to 70% confluence. Medium was changed from 10% to 1% FBS medium to minimize the effects of other growth-promoting substances normally contained in serum. For COX-2 expression studies, the cells were pre-treated with different concentrations of Avns oat extract and CH3-Avn-C for 1 hr followed by stimulation with 40 ng/ml of TNF-α for 23 hr. The medium was collected and kept at −80° C. for further analyzing prostaglandin E2 (PGE2) production. For analyzing the NFkB phosphorylation, the cells were pre-treated with different concentrations of Avns oat extract and CH3-Avn-C for 23 hr followed by stimulation with 40 ng/ml of TNF-α for 20 min. For determining the COX1 expression level, the cells were treated with different concentrations of Avns oat extract and CH3-Avn-C for 24 hr. To get the whole cell lysate for western, cells were harvested in 2× protein sample buffer by scraping the cells. […] Proteins bound to the primary antibodies were detected by the enhanced chemiluminescence (ECL) detection system and quantified by densitometric scanning.
# Effect of Avns on COX-2 expression: HT29 cells express a low basal level of COX-2 protein. […] The expression of COX2 was measured by Western blotting. β-Actin expression level was used as a loading control. […]
compound,measurement,value
CS(=O)(=O)Nc1ccc([N+](=O)[O-])cc1OC1CCCCC1 [NS398],inhibition of COX2 expression,50%
